# Laboratory results published in US12404250B2, “PARP inhibitors for treating cancer and asthma” (Oregon Health & Science University, priority 2018, dated 2025).
# What was measured:
# PARP12 = molecular target: T1, PARP12 (Homo sapiens, UniProt Q9H0J9); assay: In vitro IC50, immunoprecipitated GFP-PARP12 auto-MARylation; format: biochemical
# T1 construct: expressed in transfected cells; host or cells: HEK 293T
# T1 sequence (Q9H0J9 1-701): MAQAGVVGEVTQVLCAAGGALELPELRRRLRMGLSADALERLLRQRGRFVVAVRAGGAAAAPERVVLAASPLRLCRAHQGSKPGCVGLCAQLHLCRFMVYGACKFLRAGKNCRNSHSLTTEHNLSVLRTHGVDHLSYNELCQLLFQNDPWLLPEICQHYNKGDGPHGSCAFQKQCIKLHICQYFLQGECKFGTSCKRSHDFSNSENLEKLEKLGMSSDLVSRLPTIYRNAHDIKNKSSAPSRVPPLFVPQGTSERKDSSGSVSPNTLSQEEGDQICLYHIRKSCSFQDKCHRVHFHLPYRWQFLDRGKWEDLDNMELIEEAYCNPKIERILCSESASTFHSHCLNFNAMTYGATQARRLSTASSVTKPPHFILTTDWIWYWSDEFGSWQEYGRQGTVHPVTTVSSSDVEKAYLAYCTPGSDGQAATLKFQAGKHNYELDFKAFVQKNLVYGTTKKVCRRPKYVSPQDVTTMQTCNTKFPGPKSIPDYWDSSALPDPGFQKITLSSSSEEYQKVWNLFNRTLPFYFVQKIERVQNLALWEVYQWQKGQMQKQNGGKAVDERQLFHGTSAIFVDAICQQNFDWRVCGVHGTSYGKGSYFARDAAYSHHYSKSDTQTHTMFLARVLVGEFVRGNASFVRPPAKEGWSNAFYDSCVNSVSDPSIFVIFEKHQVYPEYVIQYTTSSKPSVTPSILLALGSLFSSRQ
# Procedure: Auto-MARylation was analyzed by Western blot with an ADP-ribose (ADPr) binding reagent (uncropped blots shown below).
# PARP 3 = molecular target: T2, PARP 3 (Homo sapiens, UniProt Q9Y6F1); assay: In vitro IC50, PARP3; format: biochemical; settings: SEM from a minimum of three dose-response experiments
# T2 sequence (Q9Y6F1 1-533): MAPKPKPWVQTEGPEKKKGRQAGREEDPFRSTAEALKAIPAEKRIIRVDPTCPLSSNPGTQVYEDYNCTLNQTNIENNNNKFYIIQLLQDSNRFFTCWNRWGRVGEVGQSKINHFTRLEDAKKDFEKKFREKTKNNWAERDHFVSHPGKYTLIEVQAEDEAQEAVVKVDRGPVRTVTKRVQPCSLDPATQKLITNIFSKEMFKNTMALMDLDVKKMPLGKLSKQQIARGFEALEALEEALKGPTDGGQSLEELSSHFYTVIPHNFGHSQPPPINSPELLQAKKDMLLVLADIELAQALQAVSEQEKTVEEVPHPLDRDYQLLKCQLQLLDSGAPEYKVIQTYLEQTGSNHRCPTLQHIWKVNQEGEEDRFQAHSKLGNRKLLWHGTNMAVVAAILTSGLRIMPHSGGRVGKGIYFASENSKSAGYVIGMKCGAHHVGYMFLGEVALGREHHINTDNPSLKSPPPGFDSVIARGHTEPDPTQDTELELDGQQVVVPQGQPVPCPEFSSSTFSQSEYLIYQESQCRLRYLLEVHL
compound,measurement,setting,value
"CC#Cc1ccc2c(=O)[nH]c(CSc3ncccn3)nc2c1C [ITK7, 8-methyl-7-(prop-1-yn-1-yl)-2-((pyrimidin-2-ylthio)methyl)quinazolin-4(3H)-one]",IC50,PARP12,> 3 µM
same,IC50,PARP 3,> 30 µM
